Measured values published in publication PMC7000209, “Novel small molecule modulators of quorum sensing in avian pathogenic Escherichia coli (APEC)” (Virulence, 2018).

Experiments:
AI-2 activity of APEC O1 = assay: AI-2 bioluminescence indicator assay, APEC O1; format: cell-based, avian pathogenic E. coli (APEC) O1; settings: Escherichia coli, read-out: % Inhibtion of AI-2 activity, serotype O1, bioluminescence vs DMSO treated control
Procedure: (§1) Overnight culture of APEC O78 prepared in LB broth was adjusted to an optical density (OD600) of 0.05 (7 × 10^7 CFU/mL) in fresh LB broth. One hundred micro-liters of the culture was transferred to a 96-well plate and 1µL (100 μM final concentration) of the compound was added to each well using a pin tool. Chloramphenicol (40 μg/mL) or kanamycin (30 μg/mL) and 1μL of 100% DMSO were included as controls in each plate. Plates were incubated at 37 °C for 10 h with shaking in a Sunrise^TM Tecan plate reader (Tecan Group Ltd. San Jose, CA, USA) and the growth was kinetically monitored every 30 min by measuring the OD at 600 nm.
(§2) The AI-2 bioluminescence assay was performed as described previously. Briefly, APEC O78 cultures grown in the presence of SMs (see above) were centrifuged at 5000 × g for 10 min, and cell-free culture supernatants were prepared by using a 0.22 µm filter 96 well plate (Millipore). The bioluminescence reporter V. harveyi BB170 (AI-1^+ and AI-2^-) was grown overnight in AB medium at 30 °C aerobically with shaking. The overnight culture was diluted to 1:5000 in fresh AB medium and incubated at 30 °C for 3 h. Following incubation, 180 μL of the V. harveyi BB170 culture was distributed into each well of a 96-well plate and mixed with 20 µL of the cell free culture supernatant, the plate was then incubated at 30 °C for 2.5 h in the dark and the bioluminescence was measured using in vivo imaging system (IVIS Lumina Series III, PerkinElmer, USA). […] Cell-free culture supernatants collected from overnight cultures of V. harveyi BB120 (AI-1^+andAI-2^+) and E. coli DH5α (a strain lacks AI-2) were used as controls. Bioluminescence of SMs treated culture supernatants were compared to DMSO treated control. The Z-score was calculated to evaluate the quality of the bioluminescence screening. Four independent experiments were conducted for the 69 compounds that inhibited ≥ 75% of the AI-2 mediated bioluminescence and the average inhibition percentage was calculated.
(§3) The selected compounds were also tested for inhibition of AI-2 production in other APEC serotypes such as O1, O2, O8, O15, O18, O35, O109, and O115 that are commonly implicated in colibacillosis using the same procedure described above.

[1] = test system: APEC O78 biofilm formation; assay: Biofilm assay (crystal violet); format: cell-based, avian pathogenic E. coli (APEC) O78; settings: 48 h; for inhibition at 100 µM: Escherichia coli, crystal violet OD550 vs DMSO control, read-out: reduction of APEC O78 biofilm formation
Procedure: Effect of the selected AI-2 inhibitors on biofilm formation was assessed using the crystal violet (CV) assay. Briefly, APEC O78 was grown in LB broth in the presence of 100 µM of each compound in a 96-well plate at 37 °C for 10 h. The culture was then diluted 1:100 in fresh LB broth. The biofilm assay was performed in a 96-well plate containing 150 µL of the diluted culture and 100 µM of each compound. The plate was then incubated aerobically without shaking at 37 °C for 48 h, washed twice with PBS to remove the non-adherent cells and stained with 200 µL of 0.1% CV in water at room temperature for 10 min. The plate was washed with PBS and biofilm was quantified by measuring the absorbance at 550 nm after solubilizing the CV in 200 μL of 30% acetic acid in water for 15 min.

[2] = test system: AI-2 activity of APEC O78; assay: AI-2 bioluminescence indicator assay (V. harveyi BB170), APEC O78 supernatant; format: cell-based, avian pathogenic E. coli (APEC) O78; settings: Escherichia coli, read-out: % Inhibtion of AI-2 activity
Procedure: as §1, §2

AI-2 activity of APEC O2 = assay: AI-2 bioluminescence indicator assay, APEC O2; format: cell-based, avian pathogenic E. coli (APEC) O2; settings: Escherichia coli, read-out: % Inhibtion of AI-2 activity
Procedure: as §1, §2, §3

APEC O2 in HD-11 cells = assay: Intracellular survival assay, APEC O2 in HD-11 cells; format: cell-based, avian pathogenic E. coli (APEC) O2; settings: MOI 100, 100 µM, 6 h; for reduction of intracellular survival of APEC O2: vs DMSO treated control
Procedure: The effect of the selected AI-2 inhibitors on the survival of APEC in macrophage cells was tested as described before. Briefly, HD-11 cells was grown as described above and infected with 1 × 10^7 CFU (MOI = 100) of mid-log phase APEC strains (O78, O1 and O2) at 37 °C for 1 h. Cells were washed with PBS and treated with gentamicin (150 μg/mL) for 1 h to kill the extracellular bacteria. The cells were then washed and incubated with 100 µM of each compound in media containing 10 μg/mL of gentamicin at 37 °C for 6 h. Following treatment, cells were washed, lysed with 0.1% Triton X-100 for 5 min, ten-fold serially diluted in PBS and plated on LB agar plates to determine CFUs. Cells treated with chloramphenicol (40 μg/mL) and 1 μL of 100% DMSO were used as controls. The experiment was conducted two times with four replicates in each experiment. Intracellular survival was expressed as the log change of APEC CFUs in the AI-2 inhibitors treated cells.

With `NC(=O)c1ccccc1Nc1cccc(C(F)(F)F)c1` [C3, 2-{[3-(trifluoromethyl)phenyl]amino}benzamide] the inhibition at 100 µM (AI-2 activity of APEC O1) was 65%, the inhibition at 100 µM [1] was 63 to 66% and the inhibition at 100 µM [2] was 78%. It also gave an inhibition at 100 µM (AI-2 activity of APEC O2) of 54%.
Work on `Cc1ccccc1N1CCN(C2CCCN(C(=O)c3ccc(F)c(Cl)c3)C2)CC1` (stereo not drawn) [C2, 1-[1-(3-chloro-4-fluorobenzoyl)-3-piperidinyl]-4-(2-methylphenyl)piperazine] yielded an inhibition at 100 µM (AI-2 activity of APEC O1) of 64%, an inhibition at 100 µM [1] of 52 to 58% and an inhibition at 100 µM [2] of 92%. It also gave an inhibition at 100 µM (AI-2 activity of APEC O2) of 96%.
With `O=C(CCN1CCN(c2ccccc2F)CC1)Nc1ccc(Br)cc1` [C7, N-(4-bromophenyl)-3-[4-(2-fluorophenyl)-1-piperazinyl]propanamide] the “reduction of intracellular survival of APEC O2” value (from here on “reduction”) (APEC O2 in HD-11 cells) was “up to 0.8 logs”, the inhibition at 100 µM (AI-2 activity of APEC O1) was 47% and the inhibition at 100 µM [1] was 63 to 66%. The inhibition at 100 µM [2] was 94% and the inhibition at 100 µM (AI-2 activity of APEC O2) was 83%.
For `OCCC1CN(C2CCN(c3ccccc3)CC2)CCN1CCCc1ccccc1` (stereo not drawn) [C10, 2-[4-(1-phenyl-4-piperidinyl)-1-(3-phenylpropyl)-2-piperazinyl]ethanol], the “clearance of intracellular APEC O2” value (APEC O2 in HD-11 cells) was 100%, the “reduction” value (APEC O2 in HD-11 cells) was ~ 3.3 logs and the inhibition at 100 µM (AI-2 activity of APEC O1) was 64%. It also gave an inhibition at 100 µM [1] of 52 to 58%, an inhibition at 100 µM [2] of 84% and an inhibition at 100 µM (AI-2 activity of APEC O2) of 89%.
With `O=[N+]([O-])c1cccc(S(=O)(=O)Nc2ccc(Br)cc2)c1` [C6, N-(4-bromophenyl)-3-nit robenzenesulfonamide] the “clearance of intracellular APEC O2” value (APEC O2 in HD-11 cells) was 100%, the “reduction” value (APEC O2 in HD-11 cells) was ~ 3.3 logs and the inhibition at 100 µM (AI-2 activity of APEC O1) was ≥ 75%. For the same compound, the inhibition at 100 µM [1] was 63 to 66%, the inhibition at 100 µM [2] was 92% and the inhibition at 100 µM (AI-2 activity of APEC O2) was 93%.
In the case of `CS/C(N)=N/N=C/c1cc(C)ccc1O` [C4, methyl N'-(2-hydroxy-5-methylbenzylidene)h ydrazonothiocarbamate], the “reduction” value (APEC O2 in HD-11 cells) is reported as “up to 0.8 logs”, the inhibition at 100 µM (AI-2 activity of APEC O1) is reported as 63% and the inhibition at 100 µM [1] is reported as 63 to 66%. The inhibition at 100 µM [2] was 75% and the inhibition at 100 µM (AI-2 activity of APEC O2) was 76%.
With `COCCN1CCC(CN(Cc2ccncc2)Cc2ccccc2Cl)CC1` [C1, (2-chlorobenzyl){[1-(2-methoxyethyl)-4-piperidinyl]methyl}(4-pyridinylmethyl)amine] the inhibition at 100 µM (AI-2 activity of APEC O1) was ≥ 75%, the “effect on APEC O78 biofilm formation (in words)” value ([1]; 100 µM, vs DMSO treated control) was “no effect” and the inhibition at 100 µM [2] was 84%. For the same compound, the inhibition at 100 µM (AI-2 activity of APEC O2) was 94%.
With `Cc1ccc(CN2CCN(CCCc3ccccc3)CC2)cc1` [C5, 1-(4-methylbenzyl)-4-(3-phenylpropyl)piperazine] the “clearance of intracellular APEC O2” value (APEC O2 in HD-11 cells) was 100%, the “reduction” value (APEC O2 in HD-11 cells) was ~ 3.3 logs and the inhibition at 100 µM (AI-2 activity of APEC O1) was 46%. For the same compound, the inhibition at 100 µM [1] was 63 to 66%, the inhibition at 100 µM [2] was 83% and the inhibition at 100 µM (AI-2 activity of APEC O2) was 89%.
In the case of `Fc1ccc(CN2CCCN(Cc3nc(-c4ccc(C(F)(F)F)cc4)no3)CC2)cc1` [C9, 1-(4-fluorobenzyl)-4-({3-[4-(trifluoromethyl)phenyl]-1,2,4-oxadiazol-5-yl}methyl)-1,4-diazepane], the “clearance of intracellular APEC O2” value (APEC O2 in HD-11 cells) is reported as 100%, the “reduction” value (APEC O2 in HD-11 cells) is reported as ~ 3.3 logs and the inhibition at 100 µM (AI-2 activity of APEC O1) is reported as 19%. It also gave an inhibition at 100 µM [1] of 52 to 58%, an inhibition at 100 µM [2] of 79% and an inhibition at 100 µM (AI-2 activity of APEC O2) of 51%.
In the case of `CCc1ccccc1Nc1nc(-c2c(C)nc3ccccn23)cs1` [C8, N-(2-ethylphenyl)-4-(2-methylimidazo[1,2-a]pyridin-3-yl)-1,3-thiazol-2-amine], the “reduction” value (APEC O2 in HD-11 cells) is reported as “up to 0.8 logs”, the inhibition at 100 µM (AI-2 activity of APEC O1) is reported as 41% and the inhibition at 100 µM [1] is reported as 52 to 58%. The inhibition at 100 µM [2] was 98% and the inhibition at 100 µM (AI-2 activity of APEC O2) was 94%.
